Assay [1] deals with Bifidobacterium animalis PTA-9175. Nature of the assay: Determination of resistance patterns (Kirby-Bauer, inhibition halos). Type of assay: cell-based. The settings on record: sensidiscs on Mueller-Hinton agar; diameter 0 = resistant. On the procedure: Method: To determine the phenotype of resistance to antibiotics the Kirby-Bauer method was used. From a young culture of 18 to 24 hours several colonies were taken with a sterile swab and inoculated into a test tube with a sterile, isotonic saline solution. The inoculum was visually adjusted to a turbidity of 0.5 on the McFarland scale. Within 15 minutes the inoculum was adjusted, a sterile swab was introduced into the suspension and when removing it the excess liquid was eliminated. Agar Mueller-Hinton plates were inoculated, leaving no free zone, sliding the swab across the surface of the agar 3 times, rotating the plate 60° each time and finally passing it over the periphery of the agar to achieve a uniform seed.
The plates were left to dry for 3 to 5 min and the sensidiscs of the following antibiotics were placed: norfloxacin, cephalothin, azithromycin, tobramycin, ampicillin/sulbactam, erythromycin cefatoxim, nalidixic acid, ceftazidime, aztreonam, vancomycin, cefuroxime, rifampicyn, nitrofurantoin, oxacylin, nefilmicin amikacin, kanamycin ticarcillin, clindamycin, ampicillin.
All strains with an inhibition diameter of 0 are resistant to the tested antibiotic.

The test system of assay [2] is homocysteine concentration in the blood. The conditions noted are these: 400 μg/day; cited from earlier work.
The conditions of assay [3]: supplements before conception; cited from earlier work.

The values below come from US20110268842A1 (SIGMA ALIMENTOS, S.A. DE C.V., priority 2008, published 2011).

For `NCC[C@H](O)C(=O)N[C@@H]1C[C@H](N)[C@@H](O[C@H]2O[C@H](CN)[C@@H](O)[C@H](O)[C@H]2O)[C@H](O)[C@H]1O[C@H]1O[C@H](CO)[C@@H](O)[C@H](N)[C@H]1O` [Amikacin], the “Inhibition halo (mm)” value in assay [1] came to 0 mm. Turning to `CC1(C)S[C@@H]2[C@H](NC(=O)[C@H](N)c3ccccc3)C(=O)N2[C@H]1C(=O)O` [Ampicillin], the “Inhibition halo (mm)” value in assay [1] was 35 mm.

With `CC[C@H]1OC(=O)[C@H](C)[C@@H](O[C@H]2C[C@@](C)(OC)[C@@H](O)[C@H](C)O2)[C@H](C)[C@@H](O[C@@H]2O[C@H](C)C[C@H](N(C)C)[C@H]2O)[C@](C)(O)C[C@@H](C)CN(C)[C@H](C)[C@@H](O)[C@]1(C)O` [Azithromycin], the “Inhibition halo (mm)” value in assay [1] is given as 30 mm. The same measure, in the same setting: next, `C[C@H]1[C@H](NC(=O)/C(=N\OC(C)(C)C(=O)O)c2csc(N)n2)C(=O)N1S(=O)(=O)O` [Aztreonam]: 0 mm; `CO/N=C(\C(=O)N[C@@H]1C(=O)N2C(C(=O)O)=C(COC(C)=O)CS[C@H]12)c1csc(N)n1` [Cefatoxim]: 40 mm. Consider `CC(C)(O/N=C(\C(=O)N[C@@H]1C(=O)N2C(C(=O)[O-])=C(C[n+]3ccccc3)CS[C@H]12)c1csc(N)n1)C(=O)O` [Ceftazidime], for which, in assay [1], the “Inhibition halo (mm)” value came to 38 mm.

With `CO/N=C(\C(=O)N[C@@H]1C(=O)N2C(C(=O)O)=C(COC(N)=O)CS[C@H]12)c1ccco1` [Cefuroxime], in assay [1], the “Inhibition halo (mm)” value is on record as 25 mm.

Regarding `CC(=O)OCC1=C(C(=O)O)N2C(=O)[C@@H](NC(=O)Cc3cccs3)[C@H]2SC1` [Cephalothin], the “Inhibition halo (mm)” value in assay [1] was 24 mm. For the compound `CCC[C@@H]1C[C@@H](C(=O)N[C@@H]([C@H]2O[C@H](SC)[C@H](O)[C@@H](O)[C@H]2O)[C@H](C)Cl)N(C)C1` [Clindamycin], the “Inhibition halo (mm)” value in assay [1] was 43 mm. Turning to `CC[C@H]1OC(=O)[C@H](C)[C@@H](O[C@H]2C[C@@](C)(OC)[C@@H](O)[C@H](C)O2)[C@H](C)[C@@H](O[C@@H]2O[C@H](C)C[C@H](N(C)C)[C@H]2O)[C@](C)(O)C[C@@H](C)C(=O)[C@H](C)[C@@H](O)[C@]1(C)O` [Erythromycin], the “Inhibition halo (mm)” value in assay [1] amounted to 40 mm. On the same count and under the same terms, next, `NC[C@H]1O[C@H](O[C@H]2[C@H](O)[C@@H](O[C@H]3O[C@H](CO)[C@@H](O)[C@H](N)[C@H]3O)[C@H](N)C[C@@H]2N)[C@H](O)[C@@H](O)[C@@H]1O` [Kanamycin]: 0 mm; `CCn1cc(C(=O)O)c(=O)c2ccc(C)nc21` [Nalidixic acid]: 0 mm; `O=C1CN(/N=C/c2ccc([N+](=O)[O-])o2)C(=O)N1` [Nitrofurantoin]: 40 mm. Regarding `CCn1cc(C(=O)O)c(=O)c2cc(F)c(N3CCNCC3)cc21` [Norfloxacin], in assay [1], the “Inhibition halo (mm)” value amounted to 0 mm. Still for that read-out and setting: next, `CC1COc2c(N3CCN(C)CC3)c(F)cc3c(=O)c(C(=O)O)cn1c23` (stereo not drawn) [Ofloxacin]: 12 mm. The same measure, in the same setting: then `Cc1onc(-c2ccccc2)c1C(=O)N[C@@H]1C(=O)N2[C@@H]1SC(C)(C)[C@@H]2C(=O)O` [Oxacylin], with 0 mm; and `CC1(C)S[C@@H]2[C@H](NC(=O)[C@H](C(=O)O)c3ccsc3)C(=O)N2[C@H]1C(=O)O` [Ticarcillin], with 40 mm; and `NC[C@H]1O[C@H](O[C@H]2[C@H](O)[C@@H](O[C@H]3O[C@H](CO)[C@@H](O)[C@H](N)[C@H]3O)[C@H](N)C[C@@H]2N)[C@H](N)C[C@@H]1O` [Tobramycin], with 0 mm. On the same count and under the same terms, next, `CN[C@H](CC(C)C)C(=O)N[C@H]1C(=O)N[C@@H](CC(N)=O)C(=O)N[C@H]2C(=O)N[C@H]3C(=O)N[C@H](C(=O)N[C@H](C(=O)O)c4cc(O)cc(O)c4-c4cc3ccc4O)[C@H](O)c3ccc(c(Cl)c3)Oc3cc2cc(c3O[C@@H]2O[C@H](CO)[C@@H](O)[C@H](O)[C@H]2O[C@H]2C[C@](C)(N)[C@H](O)[C@H](C)O2)Oc2ccc(cc2Cl)[C@H]1O` [Vancomycin]: 27 mm. Regarding `Nc1nc2ncc(CNc3ccc(C(=O)N[C@@H](CCC(=O)O)C(=O)O)cc3)nc2c(=O)[nH]1` [folic acid], the “effect on homocysteine concentration in the blood” value in assay [2] is “decrease the levels of homocysteine concentration in the blood”. In assay [3], the “reduction of the risks of neurological defects in the future child” value is 50%. For Ampicillin/Sulbactam, the “Inhibition halo (mm)” value in assay [1] is 30 mm.

Take Nefilmicin: the “Inhibition halo (mm)” value in assay [1] is given as 0 mm. Still for that read-out and setting: next, Rifampicyn: 2 mm.
